Measurements taken from US20230303570A1, “KINASE INHIBITORS AND USES THEREOF” (ABM Therapeutics Corporation, priority 2020, published 2023).

What was measured:
c-Kit = c-Kit (Homo sapiens, UniProt P10721); experiment: cKit kinase mobility shift assay; type: biochemical
Experimental: The effect of the compounds on the activity of cKit, RET and AXL kinases were assessed by Mobility shift assay. • 1. 1× kinase base buffer and stop buffer for testing kinases were prepared • 1-1) 1× Kinase base buffer (50 mM HEPES, pH 7.5, 0.01% Triton X-100) • 1-2) Stop buffer (100 mM HEPES, pH 7.5, 0.015% Brij-35, 0.2% Coating Reagent #3, 50 mM EDTA) • 2. Compound and assay plate preparation: the compound was diluted to 50× of the final desired highest inhibitor concentration in reaction by 100% DMSO. 100 μl of this compound dilution was transferred to a well in a 96-well plate. For example, if the highest desired concentration was 5 μM, then 250 μM of compound DMSO solution was prepared in this step. For all compounds, the compound was serially diluted by transferring 10 μl to 70 μl of 100 DMSO in the next well and so forth for a total of 5 concentrations. 100 μl of 100% DMSO was added to two empty wells for no compound control and no enzyme control in the same 96-well plate. The plate was labeled as source plate. The intermediate plate was prepared by transferring 10 μl of compound from source plate to a new 96-well plate as the intermediate plate, adding 90 μl of 1× kinase buffer to each well of the intermediate plate, mixing the compounds in intermediate plate for 10 min on shaker. 5 μl of each well from the 96-well intermediate plate were transferred to a 384-well plate in duplicates. For example, A1 of the 96-well plate was transferred to A1 and A2 of the 384-well plate. A2 of the 96-well plate was transferred to A3 and A4 of the 384-well plate, and so on. • 4. Kinase reaction: The assay plate already contained 5 μl of compound in 10% DMSO. A 2.5× enzyme solution was prepared by adding kinases (cKit, RET, or AXL) and DTT in 1× kinase base buffer. 2.5× enzyme solution was transferred to the assay plate (by adding 10 μl of 2.5× enzyme solution to each well of the 384-well assay plate). The plate was incubated at room temperature for 10 min. 2.5× peptide solution was prepared by adding FAM-labeled peptide, ATP, MgCl2 in the 1× kinase base buffer. 2.5× peptide solution was added to the assay plate by adding 10 μl of 2.5× peptide solution to each well of the 384-well assay plate. The plate was incubated at 28° C. for the specified period of time. 25 μl of stop buffer was added to stop reaction. Data was collected on Caliper.

HPK1 (MAP4K1) = HPK1 (MAP4K1) (Homo sapiens, UniProt Q92918); experiment: HPK1 (MAP4K1) kinase Lantha screen assay; type: biochemical
How it was run: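 Recombinant MAP4K1 preincubated 10 min with compound (6-point dilution, duplicates) in 50 mM HEPES pH 7.5, 10 mM MgCl2, then reacted with Fluorescein-PKC substrate and ATP for 90 min at room temperature. Antibody detection solution stopped reaction; after 60 min, TR-FRET read at ex 340 nm, em 520/495 nm.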

[1] = Mouse pharmacokinetics study (intravenous and oral); type: in vivo; details: CD-1 mice; for AUC / Cmax / Tmax / Vd / half-life / clearance: mouse, plasma; for AUC / Cmax / Tmax / F: PO 25 mg/kg; for Vd / half-life / clearance: IV 5 mg/kg; for clearance: read-out: Clp
Description: The test articles were formulated in […] Hydroxypropyl-beta-cyclodextrin, either as a clear solution or fine suspension.

Chain of c-Kit (P10721 26-976): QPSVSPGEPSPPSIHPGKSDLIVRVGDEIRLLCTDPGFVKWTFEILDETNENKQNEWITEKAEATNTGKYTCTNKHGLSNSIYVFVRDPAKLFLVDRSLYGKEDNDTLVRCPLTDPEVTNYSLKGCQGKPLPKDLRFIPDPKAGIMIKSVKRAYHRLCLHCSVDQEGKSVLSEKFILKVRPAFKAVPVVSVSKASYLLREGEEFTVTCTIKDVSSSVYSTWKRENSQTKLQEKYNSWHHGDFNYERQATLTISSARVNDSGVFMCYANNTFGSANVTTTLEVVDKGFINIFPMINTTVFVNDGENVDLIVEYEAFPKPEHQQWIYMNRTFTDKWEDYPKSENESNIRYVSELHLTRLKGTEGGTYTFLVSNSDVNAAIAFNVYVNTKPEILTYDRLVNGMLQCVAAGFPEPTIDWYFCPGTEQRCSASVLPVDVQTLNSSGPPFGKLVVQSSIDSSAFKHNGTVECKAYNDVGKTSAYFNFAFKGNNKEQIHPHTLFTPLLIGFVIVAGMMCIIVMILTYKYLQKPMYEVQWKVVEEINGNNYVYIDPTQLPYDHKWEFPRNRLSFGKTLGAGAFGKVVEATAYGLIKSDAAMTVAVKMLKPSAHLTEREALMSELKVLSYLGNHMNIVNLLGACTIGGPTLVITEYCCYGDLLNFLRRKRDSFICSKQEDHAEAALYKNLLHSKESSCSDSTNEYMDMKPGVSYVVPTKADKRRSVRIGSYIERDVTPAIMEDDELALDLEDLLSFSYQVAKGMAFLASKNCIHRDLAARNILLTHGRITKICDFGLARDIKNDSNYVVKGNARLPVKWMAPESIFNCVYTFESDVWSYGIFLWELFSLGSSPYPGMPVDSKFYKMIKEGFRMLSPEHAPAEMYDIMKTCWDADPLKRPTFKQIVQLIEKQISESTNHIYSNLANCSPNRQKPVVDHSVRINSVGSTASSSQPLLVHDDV
Chain of HPK1 (MAP4K1) (Q92918 whole entry, species assumed): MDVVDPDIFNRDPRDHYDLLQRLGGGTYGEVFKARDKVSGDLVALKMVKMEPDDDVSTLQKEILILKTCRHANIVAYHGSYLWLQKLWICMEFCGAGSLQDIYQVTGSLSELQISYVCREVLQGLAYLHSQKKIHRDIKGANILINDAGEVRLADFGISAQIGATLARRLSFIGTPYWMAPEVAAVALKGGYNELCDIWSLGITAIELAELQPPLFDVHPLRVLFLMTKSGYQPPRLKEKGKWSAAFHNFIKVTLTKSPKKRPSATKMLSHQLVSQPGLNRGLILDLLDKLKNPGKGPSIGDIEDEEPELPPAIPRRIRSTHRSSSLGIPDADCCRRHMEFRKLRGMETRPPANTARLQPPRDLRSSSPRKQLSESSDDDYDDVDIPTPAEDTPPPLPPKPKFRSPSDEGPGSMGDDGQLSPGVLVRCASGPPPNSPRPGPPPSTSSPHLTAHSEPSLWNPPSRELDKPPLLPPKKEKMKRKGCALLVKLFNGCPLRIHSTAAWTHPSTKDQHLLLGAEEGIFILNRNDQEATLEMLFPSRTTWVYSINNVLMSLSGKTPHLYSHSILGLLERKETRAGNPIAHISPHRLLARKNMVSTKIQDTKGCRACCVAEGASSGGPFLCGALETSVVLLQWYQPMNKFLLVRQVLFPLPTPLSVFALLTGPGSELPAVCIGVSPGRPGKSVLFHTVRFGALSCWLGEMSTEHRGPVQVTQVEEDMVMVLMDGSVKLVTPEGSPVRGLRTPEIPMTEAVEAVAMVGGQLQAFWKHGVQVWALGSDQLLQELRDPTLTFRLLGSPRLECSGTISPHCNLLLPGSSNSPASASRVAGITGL

Row | SMILES | IC50 (c-Kit) [nM] | AUC [1] [ng·h/mL] | Cmax [1] [ng/mL] | Tmax [1] [h] | also measured
1 | Cn1cc(Nc2ncc3c(n2)N2CCN=C2C(c2ccc(Cl)cc2Cl)=C3)cn1 [Compound 102, 6-(2,4-dichlorophenyl)-N-(1-methyl-1H-pyrazol-4-yl)-8,9-dihydroimidazo[1′,2′:1,6]pyrido[2,3-d]pyrimidin-2-amine] | < 100 | – | – | – | –
2 | Cc1csc(Nc2ncc3c(n2)N2CCN=C2C(c2cc(NC(=O)c4cc(C(F)(F)F)ccn4)ccc2C)=C3)n1 [Compound 233, N-(4-methyl-3-(2-((4-methylthiazol-2-yl)amino)-8,9-dihydroimidazo[1′,2′:1,6]pyrido[2,3-d]pyrimidin-6-yl)phenyl)-4-(trifluoromethyl)picolinamide] | – | 12000 ± 2750 | 893 ± 258 | 6.67 ± 2.31 | IC50 (HPK1 (MAP4K1)): < 100 nM
3 | CN1CCC(n2cc(Nc3ncc4c(n3)N3CCN=C3C(c3ccc(Cl)cc3Cl)=C4)cn2)CC1 [Compound 103, 6-(2,4-dichlorophenyl)-N-(1-(1-methylpiperidin-4-yl)-1H-pyrazol-4-yl)-8,9-dihydroimidazo[1′,2′:1,6]pyrido[2,3-d]pyrimidin-2-amine] | < 100 | – | – | – | –
4 | Cc1cc(F)c(NC(=O)c2cc(C(C)(C)C#N)ccn2)cc1C1=Cc2cnc(NC3COC3)nc2N2CCN=C12 [Compound 181, 4-(2-cyanopropan-2-yl)-N-(2-fluoro-4-methyl-5-(2-(oxetan-3-ylamino)-8,9-dihydroimidazo[1′,2′:1,6]pyrido[2,3-d]pyrimidin-6-yl)phenyl)picolinamide] | – | 8610 ± 903 | 1760 ± 380 | 2 | IC50 (HPK1 (MAP4K1)): < 100 nM; F [1]: 58.1 ± 6.1%; Vd [1]: 4.78 ± 1.21 L/kg; half-life [1]: 2.01 ± 0.82 h; clearance [1]: 28.5 ± 3.8 mL/min/kg
5 | Cc1ccc(NC(=O)c2cc(C(F)(F)F)ccn2)cc1C1=Cc2cnc(Nc3ccn(C)n3)nc2N2CCN=C12 [Compound 234, N-(4-methyl-3-(2-((1-methyl-1H-pyrazol-3-yl)amino)-8,9-dihydroimidazo[1′,2′:1,6]pyrido[2,3-d]pyrimidin-6-yl)phenyl)-4-(trifluoromethyl)picolinamide] | – | 20500 ± 2190 | 1630 ± 151 | 2 | IC50 (HPK1 (MAP4K1)): < 100 nM
6 | Cc1ccc(NC(=O)c2cc(C(C)(C)C#N)ccn2)cc1C1=Cc2cnc(Nc3cnn(C)c3)nc2N2CCN=C12 [Compound 199, 4-(2-cyanopropan-2-yl)-N-(4-methyl-3-(2-((1-methyl-1H-pyrazol-4-yl)amino)-8,9-dihydroimidazo[1′,2′:1,6]pyrido[2,3-d]pyrimidin-6-yl)phenyl)picolinamide] | – | 1730 ± 619 | 245 ± 37 | 2 | –
7 | O=C(Nc1cc(C2=Cc3cnc(NC4COC4)nc3N3CCN=C23)c(Br)cc1F)c1cc(C(F)(F)F)ccn1 [Compound 188, N-(4-bromo-2-fluoro-5-(2-(oxetan-3-ylamino)-8,9-dihydroimidazo[1′,2′:1,6]pyrido[2,3-d]pyrimidin-6-yl)phenyl)-4-(trifluoromethyl)picolinamide] | < 100 | – | – | – | –
8 | CNc1ncc2c(n1)N1CCN=C1C(Oc1ccc(NC(=O)NC3CC3)cc1)=C2 [Compound 312, 1-cyclopropyl-3-(4-((2-(methylamino)-8,9-dihydroimidazo[1′,2′:1,6]pyrido[2,3-d]pyrimidin-6-yl)oxy)phenyl)urea] | > 10000 | – | – | – | –
9 | Cc1ncc(Nc2ncc3c(n2)N2CCN=C2C(c2cc(NC(=O)c4cc(C(F)(F)F)ccn4)ccc2C)=C3)s1 [Compound 231, N-(4-methyl-3-(2-((2-methylthiazol-5-yl)amino)-8,9-dihydroimidazo[1′,2′:1,6]pyrido[2,3-d]pyrimidin-6-yl)phenyl)-4-(trifluoromethyl)picolinamide] | – | 16200 ± 2100 | 1190 ± 302 | 1.67 ± 0.58 | IC50 (HPK1 (MAP4K1)): < 100 nM
10 | Cc1cc(Nc2ncc3c(n2)N2CCN=C2C(c2cc(NC(=O)c4cc(C(F)(F)F)ccn4)ccc2C)=C3)sn1 [Compound 242, N-(4-methyl-3-(2-((3-methylisothiazol-5-yl)amino)-8,9-dihydroimidazo[1′,2′:1,6]pyrido[2,3-d]pyrimidin-6-yl)phenyl)-4-(trifluoromethyl)picolinamide] | – | 36900 ± 4060 | 3060 ± 253 | 1.67 ± 0.58 | –
11 | Cc1cc(F)c(NC(=O)c2cc(C(C)(C)C#N)ccn2)cc1C1=Cc2cnc(Nc3cnn(C)c3)nc2N2CCN=C12 [Compound 202, 4-(2-cyanopropan-2-yl)-N-(2-fluoro-4-methyl-5-(2-((1-methyl-1H-pyrazol-4-yl)amino)-8,9-dihydroimidazo[1′,2′:1,6]pyrido[2,3-d]pyrimidin-6-yl)phenyl)picolinamide] | – | 8160 ± 1270 | 839 ± 59 | 1.67 ± 0.58 | F [1]: 56 ± 9%; Vd [1]: 9.64 ± 1.99 L/kg; half-life [1]: 3.99 ± 0.72 h; clearance [1]: 27.8 ± 1 mL/min/kg
12 | CNc1ncc2c(n1)N1CCN=C1C(c1cc(NC(=O)c3cc(C(C)(C)C#N)ccn3)ccc1C)=C2 [Compound 163, 4-(2-cyanopropan-2-yl)-N-(4-methyl-3-(2-(methylamino)-8,9-dihydroimidazo[1′,2′:1,6]pyrido[2,3-d]pyrimidin-6-yl)phenyl)picolinamide] | – | 6320 ± 4580 | 1100 ± 497 | 1.33 ± 0.58 | IC50 (HPK1 (MAP4K1)): < 100 nM; F [1]: 74.6 ± 54%; Vd [1]: 6.61 ± 1.04 L/kg; half-life [1]: 1.57 ± 0.2 h; clearance [1]: 48.8 ± 5.8 mL/min/kg

The next lines start with results.

Row | IC50 (c-Kit) [nM] | AUC [1] [ng·h/mL] | Cmax [1] [ng/mL] | Tmax [1] [h] | SMILES | also measured
13 | < 100 | – | – | – | CNc1ncc2c(n1)N1CCN=C1C(c1cc(NC(=O)Nc3ccccc3Cl)c(F)cc1Br)=C2 [Compound 327, 1-(4-bromo-2-fluoro-5-(2-(methylamino)-8,9-dihydroimidazo[1′,2′:1,6]pyrido[2,3-d]pyrimidin-6-yl)phenyl)-3-(2-chlorophenyl)urea] | –
14 | < 100 | – | – | – | CNc1ncc2c(n1)N1CCN=C1C(c1cc(NC(=O)Nc3ccccc3F)c(F)cc1C)=C2 [Compound 338, 1-(2-fluoro-4-methyl-5-(2-(methylamino)-8,9-dihydroimidazo[1′,2′:1,6]pyrido[2,3-d]pyrimidin-6-yl)phenyl)-3-(2-fluorophenyl)urea] | –
15 | 100 to 10000 | – | – | – | CNc1ncc2c(n1)N1CCN=C1C(Oc1ccc(NC(=O)Nc3ccc(Cl)c(C(F)(F)F)c3)cc1)=C2 [Compound 313, 1-(4-chloro-3-(trifluoromethyl)phenyl)-3-(4-((2-(methylamino)-8,9-dihydroimidazo[1′,2′:1,6]pyrido[2,3-d]pyrimidin-6-yl)oxy)phenyl)urea] | –
16 | > 10000 | – | – | – | CNc1ncc2c(n1)N1CCN=C1C(c1cc(NC(=O)NC3CC3)c(F)cc1C)=C2 [Compound 315, 1-cyclopropyl-3-(2-fluoro-4-methyl-5-(2-(methylamino)-8,9-dihydroimidazo[1′,2′:1,6]pyrido[2,3-d]pyrimidin-6-yl)phenyl)urea] | –
17 | < 100 | – | – | – | CCNc1ncc2c(n1)N1CCN=C1C(c1cc(NC(=O)Nc3ccccc3Cl)c(F)cc1C)=C2 [Compound 332, 1-(2-chlorophenyl)-3-(5-(2-(ethylamino)-8,9-dihydroimidazo[1′,2′:1,6]pyrido[2,3-d]pyrimidin-6-yl)-2-fluoro-4-methylphenyl)urea] | –
18 | < 100 | – | – | – | CNc1ncc2c(n1)N1CCN=C1C(c1cc(NC(=O)Nc3ccccc3F)c(Cl)cc1C)=C2 [Compound 334, 1-(2-chloro-4-methyl-5-(2-(methylamino)-8,9-dihydroimidazo[1′,2′:1,6]pyrido[2,3-d]pyrimidin-6-yl)phenyl)-3-(2-fluorophenyl)urea] | –
19 | < 100 | – | – | – | CNc1ncc2c(n1)N1CCN=C1C(c1cc(NC(=O)Nc3ccccc3)c(F)cc1Br)=C2 [Compound 326, 1-(4-bromo-2-fluoro-5-(2-(methylamino)-8,9-dihydroimidazo[1′,2′:1,6]pyrido[2,3-d]pyrimidin-6-yl)phenyl)-3-phenylurea] | –
20 | < 100 | – | – | – | O=C(Nc1cc(C2=Cc3cnc(NC4COC4)nc3N3CCN=C23)c(Br)cc1F)Nc1ccccc1Cl [Compound 329, 1-(4-bromo-2-fluoro-5-(2-(oxetan-3-ylamino)-8,9-dihydroimidazo[1′,2′:1,6]pyrido[2,3-d]pyrimidin-6-yl)phenyl)-3-(2-chlorophenyl)urea] | –
